{
  "source": "patent US5843959A",
  "about": "“Methods and bicyclic polyamine compositions for the treatment of inflammation” (University of Florida Research Foundation, Inc., priority 1997, dated 1998)",
  "key": {"[1]": {"system": "adjuvant-induced arthritis"}, "[2]": {"assay": "Solubility in the vehicle", "format": "physicochemical", "conditions": "distilled water", "method": "PIP[4,4,4] was obtained as described above. Distilled water was used as the vehicle for in vivo testing. […] Commercially obtained chemicals used were indomethacin and hydrocortisone (Sigma, St. Louis, Mo., U.S.A.), aspirin (Miles Labs., Elkart, IN, U.S.A.), carrageenan (Tokyo Kasei Industry Co., Ltd.), Mycobacterium tuberculosis (Difco Labs., Detroit, Mich., U.S.A.) and carboxymethyl-cellulose (Wako Pure Chemical Industries, Osaka, Japan). Doses of all compounds used were calculated on the basis of the weight of the salt."}, "[3]": {"system": "BALB/c splenocytes stimulated with LPS", "assay": "Mitogen response to LPS (B cell proliferation)", "format": "cell-based, mouse (BALB/c)", "method": "(§1) This study examined the potential immunomodulatory activities of PIP[4,4,4] on mouse spleen cells using in vitro techniques. The effect of the compound on the ability of murine splenocytes to respond to the […] mitogen concanavalin A (Con A) and the B cell mitogen lipopolysaccharide (LPS) was studied. […] In addition, the compound was tested for its effect on the mixed lymphocyte response (MLR). The MLR is an in vitro manifestation of cell-mediated immunity in which T cells respond to differences in major histocompatibility complex (MHC) class II molecules (Ia antigens) expressed on foreign or allogeneic leukocytes (primarily B cells and […]/monocytes).\n(§2) a. Preparation of cells--Under sterile conditions, spleens were removed from BALB/c (H-2^d) and CBA/J (H-2^k) mice. BALB/c splenocytes were used as responder cells in the mitogen assays and the MLR assays, whereas CBA/J cells were used as stimulator cells in the MLR assays. […] Cells were exposed to various concentrations of the test compounds for the entire culture period. The initial dilutions in medium were filter sterilized to maintain aseptic conditions.\n(§3) b. Mitogen assays--Con A and LPS were obtained from Sigma Chemical Co. (St. Louis, Mo., U.S.A.). 2×10^5 BALB/c splenocytes were added per well. […] Triplicate wells were set up in 96-well flat-bottom microtiter plates for all treated cultures and positive controls (100% of control) were performed in replicates of nine wells. Plates were incubated at 37° C. in a humidified CO2 incubator for 3 days, pulsed with 1 μCi ^3 H-TdR/well for 6-16 hours, harvested and counted in a liquid scintillation counter. All data were processed using Lotus 1-2-3 and SigmaPlot software."}, "[4]": {"system": "BALB/c splenocytes stimulated with Con A", "assay": "Mitogen response to Con A (T cell proliferation)", "format": "cell-based, mouse (BALB/c)", "method": "as §1, §2, §3"}},
  "note": "Several values for one entry are separate records, joined by “and”; a condition that tells them apart may be missing. Identical values can stand only once. Entries after “also recorded” stand apart in the source; their conditions may differ.",
  "data": [
    {"smiles": "C(CCNCC1CCNCC1)CNCC1CCNCC1", "note": "[PIP[4,4,4], N,N'-Bis(4-piperidinylmethyl)-1,4-butanediamine]", "values": [
      {"measurement": "Net swelling of paw volume D (14-0), average", "setting": "[1]; untreated paw, Day 14 - Day 0, average, p.o. × 5: PIP[4,4,4] 100, hydrocortisone 30, indomethacin 5 mg/kg", "value": 0.29, "unit": "mL"},
      {"measurement": "Net swelling of paw volume D (14-0)", "setting": "[1]; untreated paw, Day 14 - Day 0, individual rat, p.o. × 5: PIP[4,4,4] 100, hydrocortisone 30, indomethacin 5 mg/kg", "value": "0.25 mL and 0.43 mL and 0.23 mL and 0.34 mL and 0.20 mL"},
      {"measurement": "Inhibition % D (14-0)", "setting": "[1]; untreated paw, Day 14 relative to Day 0, p.o. × 5: PIP[4,4,4] 100, hydrocortisone 30, indomethacin 5 mg/kg, >30% significant", "value": 36, "unit": "%"},
      {"measurement": "Inhibition % F (18-14)", "setting": "[1]; untreated paw, Day 14 to Day 18, p.o. × 5: PIP[4,4,4] 100, hydrocortisone 30, indomethacin 5 mg/kg, >30% significant", "value": 47, "unit": "%"},
      {"measurement": "Net swelling of paw volume E (18-0), average", "setting": "[1]; untreated paw, Day 18 - Day 0, average, p.o. × 5: PIP[4,4,4] 100, hydrocortisone 30, indomethacin 5 mg/kg", "value": 0.45, "unit": "mL"},
      {"measurement": "Net swelling of paw volume E (18-0)", "setting": "[1]; untreated paw, Day 18 - Day 0, individual rat, p.o. × 5: PIP[4,4,4] 100, hydrocortisone 30, indomethacin 5 mg/kg", "value": "0.35 mL and 0.55 mL and 0.37 mL and 0.45 mL and 0.53 mL"},
      {"measurement": "Net swelling of paw volume F (18-14), average", "setting": "[1]; untreated paw, Day 18 - Day 14, average, p.o. × 5: PIP[4,4,4] 100, hydrocortisone 30, indomethacin 5 mg/kg", "value": 0.16, "unit": "mL"},
      {"measurement": "Net swelling of paw volume F (18-14)", "setting": "[1]; untreated paw, Day 18 - Day 14, individual rat, p.o. × 5: PIP[4,4,4] 100, hydrocortisone 30, indomethacin 5 mg/kg", "value": "0.10 mL and 0.12 mL and 0.14 mL and 0.11 mL and 0.33 mL"},
      {"measurement": "Inhibition % E (18-0)", "setting": "[1]; untreated paw, Day 18 relative to Day 0, p.o. × 5: PIP[4,4,4] 100, hydrocortisone 30, indomethacin 5 mg/kg, >30% significant", "value": 40, "unit": "%"},
      {"measurement": "Weight gain reductions (in words)", "setting": "[1]; vs vehicle-treated animals, 18 day study", "value": "did not affect weight gain reductions"},
      {"measurement": "Solubility in the vehicle", "setting": "[2]", "value": "completely soluble"},
      {"measurement": "Proliferative response (CPM), Mean ± SD", "setting": "[3]; LPS 25 μg/ml, drug 0.010 μm", "value": "175516 ± 10793", "unit": "CPM"},
      {"measurement": "Proliferative response (CPM), Mean ± SD", "setting": "[3]; LPS 25 μg/ml, drug 0.100 μm", "value": "174197 ± 23886", "unit": "CPM"},
      {"measurement": "Proliferative response (CPM), Mean ± SD", "setting": "[3]; LPS 25 μg/ml, drug 1.000 μm", "value": "192921 ± 32628", "unit": "CPM"},
      {"measurement": "Proliferative response (CPM), Mean ± SD", "setting": "[3]; LPS 25 μg/ml, drug 10.000 μm", "value": "187500 ± 8089", "unit": "CPM"},
      {"measurement": "Proliferative response (CPM), Mean ± SD", "setting": "[3]; LPS 25 μg/ml, drug 100.000 μm", "value": "117804 ± 14014", "unit": "CPM"},
      {"measurement": "Proliferative response (CPM), Mean ± SD", "setting": "[3]; LPS 25 μg/ml, drug 1000.000 μm", "value": "83427 ± 18281", "unit": "CPM"},
      {"measurement": "activity at 0.01 µM", "setting": "[3]; Mus musculus, Splenocyte, 72 h, LPS 25 μg/ml, drug 0.010 μm, read-out: % Control", "value": 100, "unit": "%"},
      {"measurement": "activity at 0.1 µM", "setting": "[3]; Mus musculus, Splenocyte, 72 h, LPS 25 μg/ml, drug 0.100 μm, read-out: % Control", "value": 99, "unit": "%"},
      {"measurement": "activity at 1 µM", "setting": "[3]; Mus musculus, Splenocyte, 72 h, LPS 25 μg/ml, drug 1.000 μm, read-out: % Control", "value": 110, "unit": "%"},
      {"measurement": "activity at 10 µM", "setting": "[3]; Mus musculus, Splenocyte, 72 h, LPS 25 μg/ml, drug 10.000 μm, read-out: % Control", "value": 106, "unit": "%"},
      {"measurement": "activity at 100 µM", "setting": "[3]; Mus musculus, Splenocyte, 72 h, LPS 25 μg/ml, drug 100.000 μm, read-out: % Control", "value": 67, "unit": "%"},
      {"measurement": "activity at 1000 µM", "setting": "[3]; Mus musculus, Splenocyte, 72 h, LPS 25 μg/ml, drug 1000.000 μm, read-out: % Control", "value": 47, "unit": "%"},
      {"measurement": "Effect on LPS response (in words)", "setting": "[3]; suppression in the 1-100 μm range", "value": "some inhibition of the LPS response; also recorded: some dose-dependent suppression"},
      {"measurement": "Effect on Con A response (in words)", "setting": "[4]", "value": "no inhibitory effect on the Con A response"},
      {"measurement": "Proliferative response (CPM), Mean ± SD", "setting": "[4]; Con A 3 μg/ml, drug 0.010 μm", "value": "343389 ± 21927", "unit": "CPM"},
      {"measurement": "Proliferative response (CPM), Mean ± SD", "setting": "[4]; Con A 3 μg/ml, drug 0.100 μm", "value": "333419 ± 31211", "unit": "CPM"},
      {"measurement": "Proliferative response (CPM), Mean ± SD", "setting": "[4]; Con A 3 μg/ml, drug 1.000 μm", "value": "340397 ± 25586", "unit": "CPM"},
      {"measurement": "Proliferative response (CPM), Mean ± SD", "setting": "[4]; Con A 3 μg/ml, drug 10.000 μm", "value": "365771 ± 2876", "unit": "CPM"},
      {"measurement": "Proliferative response (CPM), Mean ± SD", "setting": "[4]; Con A 3 μg/ml, drug 100.000 μm", "value": "313504 ± 279", "unit": "CPM"},
      {"measurement": "Proliferative response (CPM), Mean ± SD", "setting": "[4]; Con A 3 μg/ml, drug 1000.000 μm", "value": "273418 ± 14954", "unit": "CPM"},
      {"measurement": "activity at 0.01 µM", "setting": "[4]; Mus musculus, Splenocyte, 72 h, Con A 3 μg/ml, drug 0.010 μm, read-out: % Control", "value": 173, "unit": "%"},
      {"measurement": "activity at 0.1 µM", "setting": "[4]; Mus musculus, Splenocyte, 72 h, Con A 3 μg/ml, drug 0.100 μm, read-out: % Control", "value": 168, "unit": "%"},
      {"measurement": "activity at 1 µM", "setting": "[4]; Mus musculus, Splenocyte, 72 h, Con A 3 μg/ml, drug 1.000 μm, read-out: % Control", "value": 172, "unit": "%"},
      {"measurement": "activity at 10 µM", "setting": "[4]; Mus musculus, Splenocyte, 72 h, Con A 3 μg/ml, drug 10.000 μm, read-out: % Control", "value": 185, "unit": "%"},
      {"measurement": "activity at 100 µM", "setting": "[4]; Mus musculus, Splenocyte, 72 h, Con A 3 μg/ml, drug 100.000 μm, read-out: % Control", "value": 158, "unit": "%"},
      {"measurement": "activity at 1000 µM", "setting": "[4]; Mus musculus, Splenocyte, 72 h, Con A 3 μg/ml, drug 1000.000 μm, read-out: % Control", "value": 138, "unit": "%"}
    ]}
  ]
}
